Data from the NIST ThermoML archive (doi:10.1021/je700140j).
Numbers after ± are expanded uncertainties.

Tests used:
[1] = refractive index (Na D-line) (dimensionless); conditions: 101.33 kPa, Liquid, Standard Abbe refractometry
[2] = for surface tension liquid-gas: Ring tensiometer; for mass density / viscosity: 100.8 kPa, Liquid
[3] = xn = mol fraction of the nth substance listed; conditions: x1 = 1; for surface tension liquid-gas: Ring tensiometer; for mass density / viscosity: 100.8 kPa, Liquid
[4] = refractive index (Na D-line) (dimensionless); xn = mol fraction of the nth substance listed; conditions: 100.8 kPa, Liquid, Standard Abbe refractometry, x1 = 1

OCc1ccccc1 [benzenemethanol]
Conditions | mass density, [2] [kg/m3] | refractive index, [1] | surface tension liquid-gas, [2] [mN/m] | viscosity, [2] [mPa·s]
298.15 K | 1041.4 ± 0.29 | 1.53843 ± 0.00033 | 38.63 ± 0.54 | 5.555 ± 0.071
308.15 K | 1033.6 ± 0.27 | 1.53421 ± 0.00033 | 37.73 ± 0.53 | 4.093 ± 0.054
318.15 K | 1025.72 ± 0.26 | 1.52994 ± 0.00033 | 36.75 ± 0.52 | 3.12 ± 0.041

CC(C)O [propan-2-ol] + OCc1ccccc1
Conditions | mass density, [3] [kg/m3] | refractive index, [4] | surface tension liquid-gas, [3] [mN/m] | viscosity, [3] [mPa·s]
298.15 K | 781.17 ± 0.61 | 1.37507 ± 0.00033 | 20.85 ± 0.32 | 2.082 ± 0.028
308.15 K | 772.53 ± 0.63 | 1.37063 ± 0.00033 | 20.05 ± 0.31 | 1.55 ± 0.021
318.15 K | 763.52 ± 0.65 | 1.3661 ± 0.00033 | 19.35 ± 0.31 | 1.181 ± 0.016

OCc1ccccc1 [benzenemethanol] + OCCc1ccccc1
Conditions | mass density, [3] [kg/m3] | refractive index, [4] | surface tension liquid-gas, [3] [mN/m] | viscosity, [3] [mPa·s]
298.15 K | 1041.4 ± 0.29 | 1.53843 ± 0.00033 | 38.63 ± 0.54 | 5.555 ± 0.071
308.15 K | 1033.6 ± 0.27 | 1.53421 ± 0.00033 | 37.73 ± 0.53 | 4.093 ± 0.054
318.15 K | 1025.72 ± 0.26 | 1.52994 ± 0.00033 | 36.75 ± 0.52 | 3.12 ± 0.041

CC(C)O [propan-2-ol]
Conditions | mass density, [2] [kg/m3] | refractive index, [1] | surface tension liquid-gas, [2] [mN/m] | viscosity, [2] [mPa·s]
298.15 K | 781.17 ± 0.61 | 1.37507 ± 0.00033 | 20.85 ± 0.32 | 2.082 ± 0.028
308.15 K | 772.53 ± 0.63 | 1.37063 ± 0.00033 | 20.05 ± 0.31 | 1.55 ± 0.021
318.15 K | 763.52 ± 0.65 | 1.3661 ± 0.00033 | 19.35 ± 0.31 | 1.181 ± 0.016

CC(C)O [propan-2-ol] + OCCc1ccccc1
Conditions | mass density, [3] [kg/m3] | refractive index, [4] | surface tension liquid-gas, [3] [mN/m] | viscosity, [3] [mPa·s]
298.15 K | 781.17 ± 0.61 | 1.37507 ± 0.00033 | 20.85 ± 0.32 | 2.082 ± 0.028
308.15 K | 772.53 ± 0.63 | 1.37063 ± 0.00033 | 20.05 ± 0.31 | 1.55 ± 0.021
318.15 K | 763.52 ± 0.65 | 1.3661 ± 0.00033 | 19.35 ± 0.31 | 1.181 ± 0.016

OCCc1ccccc1 [2-phenylethanol]
Conditions | mass density, [2] [kg/m3] | refractive index, [1] | surface tension liquid-gas, [2] [mN/m] | viscosity, [2] [mPa·s]
298.15 K | 1016.2 ± 0.39 | 1.53269 ± 0.00037 | 39.43 ± 0.58 | 11.4 ± 0.14
308.15 K | 1008.63 ± 0.37 | 1.52852 ± 0.00037 | 38.93 ± 0.57 | 7.518 ± 0.098
318.15 K | 1000.98 ± 0.36 | 1.52427 ± 0.00037 | 38.35 ± 0.56 | 5.232 ± 0.071
